Experimental data as given in US8192962B2, “Processes for detecting toxic substances” (Daikin Industries, Ltd., priority 2001, dated 2012).

Tested on: Stress protein genes
Test: DNA chip mRNA expression in yeast, stress protein genes (Table 6)
Type: cell-based, Saccharomyces cerevisiae S288C
Method in brief: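 Expression change after 2 h toxicant exposure (growth-inhibiting, sub-lethal) of log-phase S. cerevisiae S288C at 25° C. Oligo-dT-purified mRNA was labeled with Cy3-dUTP or Cy5-dUTP and hybridized >12 h at 65° C. to a genome-wide chip; ratio of scanned fluorescence to control.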

In the case of `CCCCC[C@H](O)CC(=O)CCc1ccc(O)c(OC)c1` [(13), gingerol], the “The level of expressed mRNA in the presence of chemical substance/The level of expressed mRNA in the absence of chemical substance” value (yeast gene YAL015C) is reported as 1.2, the “The level of expressed mRNA in the presence of chemical substance/The level of expressed mRNA in the absence of chemical substance” value (yeast gene YBL093C) is reported as 2.1 and the “The level of expressed mRNA in the presence of chemical substance/The level of expressed mRNA in the absence of chemical substance” value (yeast gene YBR044C) is reported as 1.2. For the same compound, the “The level of expressed mRNA in the presence of chemical substance/The level of expressed mRNA in the absence of chemical substance” value (yeast gene YBR054W) was 1.5, the “The level of expressed mRNA in the presence of chemical substance/The level of expressed mRNA in the absence of chemical substance” value (yeast gene YBR067C) was 0.9 and the “The level of expressed mRNA in the presence of chemical substance/The level of expressed mRNA in the absence of chemical substance” value (yeast gene YBR126C) was 2.1. The “The level of expressed mRNA in the presence of chemical substance/The level of expressed mRNA in the absence of chemical substance” value (yeast gene YCL035C) was 2.8, the “The level of expressed mRNA in the presence of chemical substance/The level of expressed mRNA in the absence of chemical substance” value (yeast gene YCR021C) was 0.9 and the “The level of expressed mRNA in the presence of chemical substance/The level of expressed mRNA in the absence of chemical substance” value (yeast gene YCR083W) was 1.8. For the same compound, the “The level of expressed mRNA in the presence of chemical substance/The level of expressed mRNA in the absence of chemical substance” value (yeast gene YDL022W) was 1.5, the “The level of expressed mRNA in the presence of chemical substance/The level of expressed mRNA in the absence of chemical substance” value (yeast gene YDL025C) was 1.2 and the “The level of expressed mRNA in the presence of chemical substance/The level of expressed mRNA in the absence of chemical substance” value (yeast gene YDR033W) was 0.7. For the same compound, the “The level of expressed mRNA in the presence of chemical substance/The level of expressed mRNA in the absence of chemical substance” value (yeast gene YDR077W) was 1.0, the “The level of expressed mRNA in the presence of chemical substance/The level of expressed mRNA in the absence of chemical substance” value (yeast gene YDR098C) was 1.2 and the “The level of expressed mRNA in the presence of chemical substance/The level of expressed mRNA in the absence of chemical substance” value (yeast gene YDR155C) was 3.3. For the same compound, the “The level of expressed mRNA in the presence of chemical substance/The level of expressed mRNA in the absence of chemical substance” value (yeast gene YDR293C) was 2.3, the “The level of expressed mRNA in the presence of chemical substance/The level of expressed mRNA in the absence of chemical substance” value (yeast gene YDR513W) was 1.8 and the “The level of expressed mRNA in the presence of chemical substance/The level of expressed mRNA in the absence of chemical substance” value (yeast gene YDR519W) was 2.5. For the same compound, the “The level of expressed mRNA in the presence of chemical substance/The level of expressed mRNA in the absence of chemical substance” value (yeast gene YEL039C) was 0.5, the “The level of expressed mRNA in the presence of chemical substance/The level of expressed mRNA in the absence of chemical substance” value (yeast gene YER042W) was 1.4 and the “The level of expressed mRNA in the presence of chemical substance/The level of expressed mRNA in the absence of chemical substance” value (yeast gene YER057C) was 1.0. The “The level of expressed mRNA in the presence of chemical substance/The level of expressed mRNA in the absence of chemical substance” value (yeast gene YER125W) was 1.9, the “The level of expressed mRNA in the presence of chemical substance/The level of expressed mRNA in the absence of chemical substance” value (yeast gene YFL014W) was 15.2 and the “The level of expressed mRNA in the presence of chemical substance/The level of expressed mRNA in the absence of chemical substance” value (yeast gene YFL016C) was 2.8. For the same compound, the “The level of expressed mRNA in the presence of chemical substance/The level of expressed mRNA in the absence of chemical substance” value (yeast gene YFL020C) was 1.4, the “The level of expressed mRNA in the presence of chemical substance/The level of expressed mRNA in the absence of chemical substance” value (yeast gene YFR052W) was 3.8 and the “The level of expressed mRNA in the presence of chemical substance/The level of expressed mRNA in the absence of chemical substance” value (yeast gene YGL073W) was 1.5. For the same compound, the “The level of expressed mRNA in the presence of chemical substance/The level of expressed mRNA in the absence of chemical substance” value (yeast gene YGL115W) was 0.7, the “The level of expressed mRNA in the presence of chemical substance/The level of expressed mRNA in the absence of chemical substance” value (yeast gene YGR088W) was 1.2 and the “The level of expressed mRNA in the presence of chemical substance/The level of expressed mRNA in the absence of chemical substance” value (yeast gene YHL028W) was 2.1. For the same compound, the “The level of expressed mRNA in the presence of chemical substance/The level of expressed mRNA in the absence of chemical substance” value (yeast gene YHL046C) was 1.4, the “The level of expressed mRNA in the presence of chemical substance/The level of expressed mRNA in the absence of chemical substance” value (yeast gene YHR030C) was 1.0 and the “The level of expressed mRNA in the presence of chemical substance/The level of expressed mRNA in the absence of chemical substance” value (yeast gene YHR057C) was 1.9. The “The level of expressed mRNA in the presence of chemical substance/The level of expressed mRNA in the absence of chemical substance” value (yeast gene YHR104W) was 1.2, the “The level of expressed mRNA in the presence of chemical substance/The level of expressed mRNA in the absence of chemical substance” value (yeast gene YIL011W) was 0.5 and the “The level of expressed mRNA in the presence of chemical substance/The level of expressed mRNA in the absence of chemical substance” value (yeast gene YIL033C) was 2.5. The “The level of expressed mRNA in the presence of chemical substance/The level of expressed mRNA in the absence of chemical substance” value (yeast gene YIR037W) was 2.4, the “The level of expressed mRNA in the presence of chemical substance/The level of expressed mRNA in the absence of chemical substance” value (yeast gene YIR038C) was 2.5 and the “The level of expressed mRNA in the presence of chemical substance/The level of expressed mRNA in the absence of chemical substance” value (yeast gene YJL128C) was 1.7. For the same compound, the “The level of expressed mRNA in the presence of chemical substance/The level of expressed mRNA in the absence of chemical substance” value (yeast gene YJL159W) was 1.7, the “The level of expressed mRNA in the presence of chemical substance/The level of expressed mRNA in the absence of chemical substance” value (yeast gene YJL165C) was 1.5 and the “The level of expressed mRNA in the presence of chemical substance/The level of expressed mRNA in the absence of chemical substance” value (yeast gene YJR045C) was 2.3. For the same compound, the “The level of expressed mRNA in the presence of chemical substance/The level of expressed mRNA in the absence of chemical substance” value (yeast gene YJR090C) was 2.2, the “The level of expressed mRNA in the presence of chemical substance/The level of expressed mRNA in the absence of chemical substance” value (yeast gene YKL161C) was 1.3 and the “The level of expressed mRNA in the presence of chemical substance/The level of expressed mRNA in the absence of chemical substance” value (yeast gene YKL163W) was 1.5. For the same compound, the “The level of expressed mRNA in the presence of chemical substance/The level of expressed mRNA in the absence of chemical substance” value (yeast gene YKL164C) was 0.9, the “The level of expressed mRNA in the presence of chemical substance/The level of expressed mRNA in the absence of chemical substance” value (yeast gene YKL210W) was 2.9 and the “The level of expressed mRNA in the presence of chemical substance/The level of expressed mRNA in the absence of chemical substance” value (yeast gene YKR053C) was 0.7. The “The level of expressed mRNA in the presence of chemical substance/The level of expressed mRNA in the absence of chemical substance” value (yeast gene YLL039C) was 2.2, the “The level of expressed mRNA in the presence of chemical substance/The level of expressed mRNA in the absence of chemical substance” value (yeast gene YLL060C) was 1.8 and the “The level of expressed mRNA in the presence of chemical substance/The level of expressed mRNA in the absence of chemical substance” value (yeast gene YLR006C) was 0.8. For the same compound, the “The level of expressed mRNA in the presence of chemical substance/The level of expressed mRNA in the absence of chemical substance” value (yeast gene YLR109W) was 3.2, the “The level of expressed mRNA in the presence of chemical substance/The level of expressed mRNA in the absence of chemical substance” value (yeast gene YLR259C) was 2.5 and the “The level of expressed mRNA in the presence of chemical substance/The level of expressed mRNA in the absence of chemical substance” value (yeast gene YML007W) was 1.7. For the same compound, the “The level of expressed mRNA in the presence of chemical substance/The level of expressed mRNA in the absence of chemical substance” value (yeast gene YMR021C) was 1.4, the “The level of expressed mRNA in the presence of chemical substance/The level of expressed mRNA in the absence of chemical substance” value (yeast gene YMR173W) was 2.0 and the “The level of expressed mRNA in the presence of chemical substance/The level of expressed mRNA in the absence of chemical substance” value (yeast gene YMR186W) was 2.4. For the same compound, the “The level of expressed mRNA in the presence of chemical substance/The level of expressed mRNA in the absence of chemical substance” value (yeast gene YNL064C) was 1.1, the “The level of expressed mRNA in the presence of chemical substance/The level of expressed mRNA in the absence of chemical substance” value (yeast gene YNR076W) was 0.9 and the “The level of expressed mRNA in the presence of chemical substance/The level of expressed mRNA in the absence of chemical substance” value (yeast gene YOL064C) was 2.0. For the same compound, the “The level of expressed mRNA in the presence of chemical substance/The level of expressed mRNA in the absence of chemical substance” value (yeast gene YOL161C) was 1.2, the “The level of expressed mRNA in the presence of chemical substance/The level of expressed mRNA in the absence of chemical substance” value (yeast gene YOR008C) was 0.9 and the “The level of expressed mRNA in the presence of chemical substance/The level of expressed mRNA in the absence of chemical substance” value (yeast gene YOR010C) was 0.5. The “The level of expressed mRNA in the presence of chemical substance/The level of expressed mRNA in the absence of chemical substance” value (yeast gene YOR027W) was 5.1, the “The level of expressed mRNA in the presence of chemical substance/The level of expressed mRNA in the absence of chemical substance” value (yeast gene YOR208W) was 1.5 and the “The level of expressed mRNA in the presence of chemical substance/The level of expressed mRNA in the absence of chemical substance” value (yeast gene YPL059W) was 0.7. The “The level of expressed mRNA in the presence of chemical substance/The level of expressed mRNA in the absence of chemical substance” value (yeast gene YPL106C) was 3.1, the “The level of expressed mRNA in the presence of chemical substance/The level of expressed mRNA in the absence of chemical substance” value (yeast gene YPL140C) was 0.9 and the “The level of expressed mRNA in the presence of chemical substance/The level of expressed mRNA in the absence of chemical substance” value (yeast gene YPL194W) was 1.4. The “The level of expressed mRNA in the presence of chemical substance/The level of expressed mRNA in the absence of chemical substance” value (yeast gene YPL223C) was 2.3, the “The level of expressed mRNA in the presence of chemical substance/The level of expressed mRNA in the absence of chemical substance” value (yeast gene YPL240C) was 2.9 and the “The level of expressed mRNA in the presence of chemical substance/The level of expressed mRNA in the absence of chemical substance” value (yeast gene YPR005C) was 0.7. For the same compound, the “The level of expressed mRNA in the presence of chemical substance/The level of expressed mRNA in the absence of chemical substance” value (yeast gene YPR026W) was 2.3.
